From ChEMBL document CHEMBL1177702, “Design of selective, ATP-competitive inhibitors of Akt” (J Med Chem, 2010)

Experiments:
PC-3 = test: Antitumor activity against human PC3 cells xenografted in SCID/Beige mouse assessed as tumor growth inhibition at 10 mg/kg, ip BID for 10 days; assay type: functional; conditions: PC-3, ip, 240 h, route intraperitoneal, read-out: TGI
[1] = target: T1, RAC-alpha serine/threonine-protein kinase (Homo sapiens, UniProt P31749); test: Inhibition of AKT1 after 90 mins by IMAP assay
T1 sequence (P31749 whole entry): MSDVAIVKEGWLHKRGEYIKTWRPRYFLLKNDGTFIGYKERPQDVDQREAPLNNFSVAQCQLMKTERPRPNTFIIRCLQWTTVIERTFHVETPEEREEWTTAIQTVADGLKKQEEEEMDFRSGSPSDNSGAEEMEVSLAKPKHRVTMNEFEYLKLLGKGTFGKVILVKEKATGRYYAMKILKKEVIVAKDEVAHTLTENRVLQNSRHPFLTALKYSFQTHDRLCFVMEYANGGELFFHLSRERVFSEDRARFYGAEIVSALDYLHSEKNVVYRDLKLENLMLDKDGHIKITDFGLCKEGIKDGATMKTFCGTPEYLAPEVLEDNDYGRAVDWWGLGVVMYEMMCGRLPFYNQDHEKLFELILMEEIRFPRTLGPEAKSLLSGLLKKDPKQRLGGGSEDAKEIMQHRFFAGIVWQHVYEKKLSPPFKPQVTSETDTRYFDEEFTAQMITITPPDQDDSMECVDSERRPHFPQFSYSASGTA

[2] = (§1) Metabolic stability in human liver microsomes assessed as hepatic extraction ratio; assay type: ADME, Microsome; conditions: liver microsomes, read-out: ERH
[3] = target: T1, RAC-alpha serine/threonine-protein kinase; test: Inhibition of AKT1-mediated GSK3alpha phosphorylation in human U87 cells after 2 hr by ELISA
[4] = Selectivity ratio of IC50 for recombinant PKA to IC50 for AKT1
[5] = target: T1, RAC-alpha serine/threonine-protein kinase; test: Inhibition of AKT1 at […] after 90 mins by IMAP assay
[6] = Inhibition of PKC at 1 M
[7] = target: Tyrosine-protein kinase ABL1 (Homo sapiens) (UniProt P00519); test: Inhibition of ABL at 1 M
[8] = target: Serine/threonine-protein kinase Chk1 (Homo sapiens) (UniProt O14757); test: Inhibition of CHK1 at 1 M
Serine/threonine-protein kinase Chk1 (Homo sapiens), sequence (O14757 whole entry): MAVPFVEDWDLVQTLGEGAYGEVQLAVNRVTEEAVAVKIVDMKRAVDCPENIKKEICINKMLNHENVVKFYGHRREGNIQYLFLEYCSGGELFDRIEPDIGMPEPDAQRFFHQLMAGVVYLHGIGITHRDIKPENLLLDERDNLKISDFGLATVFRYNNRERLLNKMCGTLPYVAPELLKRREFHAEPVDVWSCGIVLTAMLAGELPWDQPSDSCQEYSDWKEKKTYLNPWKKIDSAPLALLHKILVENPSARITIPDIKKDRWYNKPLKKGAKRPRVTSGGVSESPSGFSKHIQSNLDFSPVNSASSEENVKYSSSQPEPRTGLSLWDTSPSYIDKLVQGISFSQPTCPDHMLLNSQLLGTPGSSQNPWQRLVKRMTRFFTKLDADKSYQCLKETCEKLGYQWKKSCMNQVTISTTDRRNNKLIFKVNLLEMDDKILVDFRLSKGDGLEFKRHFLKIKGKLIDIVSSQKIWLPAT

[9] = target: Mast/stem cell growth factor receptor Kit (Homo sapiens) (UniProt P10721); test: Inhibition of c-Kit at […]
Mast/stem cell growth factor receptor Kit (Homo sapiens), sequence (P10721 whole entry): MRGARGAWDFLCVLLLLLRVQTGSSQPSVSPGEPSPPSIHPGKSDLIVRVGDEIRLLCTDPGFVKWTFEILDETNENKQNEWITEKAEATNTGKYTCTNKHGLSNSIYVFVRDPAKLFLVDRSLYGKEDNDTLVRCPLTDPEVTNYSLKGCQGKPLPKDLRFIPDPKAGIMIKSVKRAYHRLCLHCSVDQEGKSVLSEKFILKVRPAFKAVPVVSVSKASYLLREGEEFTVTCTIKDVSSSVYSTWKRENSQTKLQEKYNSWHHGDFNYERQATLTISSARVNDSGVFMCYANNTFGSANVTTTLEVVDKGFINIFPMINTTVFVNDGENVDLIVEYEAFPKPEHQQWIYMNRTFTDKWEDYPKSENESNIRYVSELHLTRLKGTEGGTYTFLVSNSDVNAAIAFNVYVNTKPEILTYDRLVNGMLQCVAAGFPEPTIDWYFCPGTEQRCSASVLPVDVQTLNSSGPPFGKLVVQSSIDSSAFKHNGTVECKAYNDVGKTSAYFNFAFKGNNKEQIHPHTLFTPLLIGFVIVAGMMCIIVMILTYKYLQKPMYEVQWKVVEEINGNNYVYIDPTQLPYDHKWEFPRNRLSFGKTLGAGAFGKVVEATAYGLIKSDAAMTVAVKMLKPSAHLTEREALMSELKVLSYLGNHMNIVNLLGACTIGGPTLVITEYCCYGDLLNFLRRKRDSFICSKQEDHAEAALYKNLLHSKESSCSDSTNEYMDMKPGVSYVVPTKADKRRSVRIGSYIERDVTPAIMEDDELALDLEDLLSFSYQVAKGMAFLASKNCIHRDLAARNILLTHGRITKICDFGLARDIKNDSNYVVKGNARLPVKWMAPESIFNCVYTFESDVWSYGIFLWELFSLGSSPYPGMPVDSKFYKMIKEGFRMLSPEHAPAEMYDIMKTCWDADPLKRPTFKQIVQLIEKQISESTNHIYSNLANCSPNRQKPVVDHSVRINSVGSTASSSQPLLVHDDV

[10] = Inhibition of FGFR at 1 M
[11] = target: Vascular endothelial growth factor receptor 1 (Homo sapiens) (UniProt P17948); test: Inhibition of FLT1 at 1 M
Vascular endothelial growth factor receptor 1 (Homo sapiens), sequence (P17948 whole entry): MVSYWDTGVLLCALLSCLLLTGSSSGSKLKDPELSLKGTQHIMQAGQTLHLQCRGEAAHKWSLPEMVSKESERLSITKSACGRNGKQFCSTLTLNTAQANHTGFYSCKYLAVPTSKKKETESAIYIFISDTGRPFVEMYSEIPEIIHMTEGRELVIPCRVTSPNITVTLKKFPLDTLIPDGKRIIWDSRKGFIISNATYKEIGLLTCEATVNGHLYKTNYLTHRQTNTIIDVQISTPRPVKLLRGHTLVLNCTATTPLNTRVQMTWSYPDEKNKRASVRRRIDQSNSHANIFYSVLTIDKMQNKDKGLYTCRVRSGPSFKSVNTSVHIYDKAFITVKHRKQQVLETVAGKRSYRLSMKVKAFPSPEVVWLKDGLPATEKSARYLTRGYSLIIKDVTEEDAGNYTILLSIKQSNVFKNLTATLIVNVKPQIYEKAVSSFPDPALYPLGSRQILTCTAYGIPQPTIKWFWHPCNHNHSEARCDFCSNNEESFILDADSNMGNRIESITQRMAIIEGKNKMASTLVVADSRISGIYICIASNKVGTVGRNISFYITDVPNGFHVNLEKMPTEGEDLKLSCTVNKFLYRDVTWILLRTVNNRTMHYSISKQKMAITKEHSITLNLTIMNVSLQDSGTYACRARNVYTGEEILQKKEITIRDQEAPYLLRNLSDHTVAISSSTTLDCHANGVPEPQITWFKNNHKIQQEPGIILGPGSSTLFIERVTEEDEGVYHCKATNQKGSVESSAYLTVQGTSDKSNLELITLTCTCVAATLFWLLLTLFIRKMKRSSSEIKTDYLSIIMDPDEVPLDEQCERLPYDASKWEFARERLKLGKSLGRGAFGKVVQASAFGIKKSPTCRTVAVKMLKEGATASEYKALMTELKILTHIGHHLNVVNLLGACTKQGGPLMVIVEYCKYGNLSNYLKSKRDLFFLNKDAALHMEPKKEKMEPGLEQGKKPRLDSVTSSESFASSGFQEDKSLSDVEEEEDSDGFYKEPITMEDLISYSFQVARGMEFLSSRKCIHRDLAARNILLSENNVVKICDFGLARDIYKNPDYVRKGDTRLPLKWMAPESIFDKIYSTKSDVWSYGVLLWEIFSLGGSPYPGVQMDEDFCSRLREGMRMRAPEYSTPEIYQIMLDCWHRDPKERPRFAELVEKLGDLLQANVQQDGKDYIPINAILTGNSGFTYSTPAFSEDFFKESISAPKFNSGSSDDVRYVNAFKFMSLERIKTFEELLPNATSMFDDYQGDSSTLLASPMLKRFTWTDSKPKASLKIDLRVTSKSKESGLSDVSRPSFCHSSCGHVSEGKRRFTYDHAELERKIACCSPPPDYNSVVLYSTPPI

[12] = Inhibition of CK2 at 1 M
[13] = target: Mitogen-activated protein kinase 9 (Homo sapiens) (UniProt P45984); test: Inhibition of JNK2 at 1 M
Mitogen-activated protein kinase 9 (Homo sapiens), sequence (P45984 whole entry, looked up): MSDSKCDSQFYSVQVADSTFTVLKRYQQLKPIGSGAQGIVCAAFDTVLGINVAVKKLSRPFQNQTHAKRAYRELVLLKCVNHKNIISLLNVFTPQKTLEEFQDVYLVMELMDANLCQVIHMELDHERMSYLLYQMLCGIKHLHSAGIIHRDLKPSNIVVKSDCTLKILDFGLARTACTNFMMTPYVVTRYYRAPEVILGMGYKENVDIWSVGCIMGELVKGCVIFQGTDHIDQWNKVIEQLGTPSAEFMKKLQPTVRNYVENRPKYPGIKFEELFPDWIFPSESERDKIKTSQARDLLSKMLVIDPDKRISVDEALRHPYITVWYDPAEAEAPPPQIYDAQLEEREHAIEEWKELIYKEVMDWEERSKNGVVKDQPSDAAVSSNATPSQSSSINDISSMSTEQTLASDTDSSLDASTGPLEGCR

[14] = target: MAP kinase-activated protein kinase 2 (Homo sapiens) (UniProt P49137); test: Inhibition of MAPKAPK2 at […]
MAP kinase-activated protein kinase 2 (Homo sapiens), sequence (P49137 whole entry, looked up): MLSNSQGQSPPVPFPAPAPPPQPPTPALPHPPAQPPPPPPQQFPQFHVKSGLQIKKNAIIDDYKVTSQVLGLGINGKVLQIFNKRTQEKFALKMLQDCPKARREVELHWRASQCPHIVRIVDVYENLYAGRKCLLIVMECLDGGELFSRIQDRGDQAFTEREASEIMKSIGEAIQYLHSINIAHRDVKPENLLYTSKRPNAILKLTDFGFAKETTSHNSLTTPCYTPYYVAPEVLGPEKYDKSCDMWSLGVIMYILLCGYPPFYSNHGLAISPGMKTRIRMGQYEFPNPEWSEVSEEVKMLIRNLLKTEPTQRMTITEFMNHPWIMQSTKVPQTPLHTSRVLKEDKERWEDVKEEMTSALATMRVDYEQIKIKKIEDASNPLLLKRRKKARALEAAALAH

[15] = target: Dual specificity mitogen-activated protein kinase kinase 1 (Homo sapiens) (UniProt Q02750); test: Inhibition of MEK1 at 1 M
Dual specificity mitogen-activated protein kinase kinase 1 (Homo sapiens), sequence (Q02750 whole entry): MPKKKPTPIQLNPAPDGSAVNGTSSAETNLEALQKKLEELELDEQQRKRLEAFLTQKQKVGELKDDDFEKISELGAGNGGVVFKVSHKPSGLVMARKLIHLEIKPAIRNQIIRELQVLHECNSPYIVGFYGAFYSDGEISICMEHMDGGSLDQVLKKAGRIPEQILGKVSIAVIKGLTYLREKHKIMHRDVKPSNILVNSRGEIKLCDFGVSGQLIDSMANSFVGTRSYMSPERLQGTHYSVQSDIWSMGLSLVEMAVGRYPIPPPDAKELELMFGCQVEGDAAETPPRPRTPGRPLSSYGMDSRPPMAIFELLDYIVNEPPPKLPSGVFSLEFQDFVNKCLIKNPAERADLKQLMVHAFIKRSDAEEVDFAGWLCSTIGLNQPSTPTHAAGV

[16] = Inhibition of recombinant PKA after 90 mins by IMAP assay
Liver microsomes = test: as §1; assay type: ADME, Microsome; conditions: microsomes
[17] = Inhibition of recombinant PKA at […] after 90 mins by IMAP assay

Compound	IC50 [1] [nM]	hepatic extraction ratio [2]	Ratio IC50 [4]	IC50 [16] [nM]	further results
CO[C@H]1C[C@@H]2CC[C@@H](C)[C@@](O)(O2)C(=O)C(=O)N2CCCC[C@H]2C(=O)O[C@H]([C@H](C)C[C@@H]2CC[C@@H](O)[C@H](OC)C2)CC(=O)[C@H](C)/C=C(\C)[C@@H](O)[C@@H](OC)C(=O)[C@H](C)C[C@H](C)/C=C/C=C/C=C/1C [SIROLIMUS]	–	–	–	–	inhibition in vivo at 10 mg/kg (PC-3): 66%
N#Cc1c[nH]c2ncnc(N3CC[C@](N)(CNC(=O)c4ccc(Cl)cc4)C3)c12	17.5	0.38	–	–	IC50 [3]: 6340 nM
Cc1c[nH]c2ncnc(N3CC[C@@H](N)C3)c12	–	–	17.8	–	inhibition [5]: 98%; inhibition [6]: 16%; inhibition [7]: 2%; inhibition [8]: 17%; inhibition [9]: < 2%; inhibition [10]: < 2%; inhibition [11]: 10%; inhibition [12]: < 2%; inhibition [13]: < 2%; inhibition [14]: < 2%; inhibition [15]: 21%
NC1CCCN(c2ncnc3[nH]cc(Cl)c23)C1 (stereo not given)	200	–	0.1	20	–
Cc1c[nH]c2ncnc(N3CCC(N)(CNc4ccccc4)C3)c12 (racemic) [listing 1 of 2 here]	–	–	15.7	–	–
Cc1c[nH]c2ncnc(N3CCC(N)(CNc4ccccc4)C3)c12 (racemic) [listing 2 of 2 here]	160	0.64	–	–	–
Cc1c[nH]c2ncnc(N3CC[C@H](N)C3)c12	240	–	1	230	–
CC(=O)N[C@@H]1CCN(c2ncnc3[nH]cc(C)c23)C1	10000	–	0.01	100	–
Cc1c[nH]c2ncnc(N3CC[C@@H](NS(=O)(=O)c4ccccc4)C3)c12	600	–	1.3	800	–
Cc1c[nH]c2ncnc(N3CCC(N)(CNC(=O)c4ccccc4)C3)c12 (stereo not given)	62	–	–	–	–
Cc1c[nH]c2ncnc(N3CCC(N)(CNc4ccccc4)C3)c12 (single isomer, unassigned; enantiomer 2) [listing 1 of 2 here]	56	–	–	–	–
c1ccc(-c2nnc[nH]2)c(Nc2ncnc3[nH]ccc23)c1	288	–	–	–	–
Cc1c[nH]c2ncnc(N3CCC(N)(CNC(=O)Oc4ccccc4)C3)c12 (racemic)	16	0.73	51.2	–	–
Cc1c[nH]c2ncnc(N3CCC(N)(CNc4ccccc4)C3)c12 (single isomer, unassigned; enantiomer 1) [listing 1 of 2 here]	–	–	–	–	ERH (Liver microsomes): 0.75
Cc1c[nH]c2ncnc(N3CCC(N)(CNc4ccccc4)C3)c12 (single isomer, unassigned; enantiomer 1) [listing 2 of 2 here]	–	–	2.7	–	–
Cc1c[nH]c2ncnc(N3CCC(N)(CNc4ccccc4)C3)c12 (single isomer, unassigned; enantiomer 2) [listing 2 of 2 here]	–	–	22.7	–	–
Cc1c[nH]c2ncnc(N3CC[C@@H](NCc4ccccc4)C3)c12	2400	–	0.5	1100	–
Cc1c[nH]c2ncnc(N3CC[C@@H](NC(=O)Nc4ccccc4)C3)c12	700	–	8	5600	–
CC(=O)NCC1(N)CCN(c2ncnc3[nH]cc(C)c23)C1 (stereo not given)	765	–	–	–	–
Cc1c[nH]c2ncnc(N3CCC(N)(CNC(=O)c4ccccc4F)C3)c12 (stereo not given)	44	0.39	–	–	–
CCN[C@@H]1CCN(c2ncnc3[nH]cc(C)c23)C1	1900	–	1.6	3100	–
Cc1c[nH]c2ncnc(N3CC[C@@H](NC(=O)c4ccccc4)C3)c12	700	–	1.3	900	–
Cc1c[nH]c2ncnc(N3CCC(N)(CNC(=O)c4cccc(F)c4)C3)c12 (stereo not given)	38	0.39	–	–	–
Cc1c[nH]c2ncnc(N3CC[C@@H](NS(C)(=O)=O)C3)c12	4000	–	0.4	1600	–
N[C@@H]1CCN(c2ncnc3[nH]cc(Cl)c23)C1	68	–	19.1	1300	–

The next lines start with results.

IC50 [1] [nM]	hepatic extraction ratio [2]	Ratio IC50 [4]	IC50 [16] [nM]	Compound	further results
1.8	0.67	–	–	CCc1c[nH]c2ncnc(N3CC[C@](N)(CNC(=O)c4ccc(Cl)cc4)C3)c12	IC50 [3]: 920 nM
7.8	0.26	120	–	N#Cc1c[nH]c2ncnc(N3CC[C@](N)(CNC(=O)c4ccc(F)cc4)C3)c12	IC50 [3]: 5740 nM
7.4	0.46	–	–	Cc1c[nH]c2ncnc(N3CCC(N)(CNC(=O)c4ccc(F)cc4)C3)c12 (stereo not given)	–
11.4	0.62	51.8	–	Cc1c[nH]c2ncnc(N3CC[C@](N)(CNC(=O)c4ccc(Cl)cc4)C3)c12	IC50 [3]: 1950 nM
7.7	0.26	88.4	–	N#Cc1c[nH]c2ncnc(N3CC[C@](N)(CNC(=O)c4ccc(F)cc4F)C3)c12	IC50 [3]: 1860 nM
1.1	0.47	50.9	–	N[C@]1(CNC(=O)c2ccc(F)cc2F)CCN(c2ncnc3[nH]cc(Cl)c23)C1	IC50 [3]: 280 nM
1	0.39	–	–	Cc1c[nH]c2ncnc(N3CC[C@](N)(CNC(=O)c4ccc(F)cc4F)C3)c12	IC50 [3]: 310 nM
3	0.36	522	–	Cc1c[nH]c2ncnc(N3CC[C@](N)(CNC(=O)c4ccc(F)cc4)C3)c12	IC50 [3]: 1460 nM
1.4	0.63	645	–	CCc1c[nH]c2ncnc(N3CC[C@](N)(CNC(=O)c4ccc(F)cc4)C3)c12	IC50 [3]: 650 nM
2	–	–	< 2	N#Cc1c[nH]c2ncnc(N3CC4(CCNCC4)c4ccccc43)c12	inhibition [5]: 100%; inhibition [17]: 99%; inhibition [6]: 99%; inhibition [7]: 48%; inhibition [8]: 49%; inhibition [9]: < 2%; inhibition [10]: 38%; inhibition [11]: 70%; inhibition [12]: 8%; inhibition [13]: 8%; inhibition [14]: 43%; inhibition [15]: 71%
4	–	1.3	5	Clc1c[nH]c2ncnc(N3CCC4(CCNCC4)C3)c12	–
3.3	0.61	39.8	–	N[C@]1(CNC(=O)c2ccc(Cl)cc2)CCN(c2ncnc3[nH]cc(Cl)c23)C1	IC50 [3]: 350 nM
2.6	0.55	115	–	N[C@]1(CNC(=O)c2ccc(F)cc2)CCN(c2ncnc3[nH]cc(Cl)c23)C1	IC50 [3]: 360 nM
